How the values were obtained:
Format in all cases: biochemical
JAK3 = target: T1, JAK3 (Homo sapiens, UniProt P52333); assay: Inhibition of a panel of kinases, in vitro HotSpot kinase assay: JAK3
T1 sequence (P52333 1-1124): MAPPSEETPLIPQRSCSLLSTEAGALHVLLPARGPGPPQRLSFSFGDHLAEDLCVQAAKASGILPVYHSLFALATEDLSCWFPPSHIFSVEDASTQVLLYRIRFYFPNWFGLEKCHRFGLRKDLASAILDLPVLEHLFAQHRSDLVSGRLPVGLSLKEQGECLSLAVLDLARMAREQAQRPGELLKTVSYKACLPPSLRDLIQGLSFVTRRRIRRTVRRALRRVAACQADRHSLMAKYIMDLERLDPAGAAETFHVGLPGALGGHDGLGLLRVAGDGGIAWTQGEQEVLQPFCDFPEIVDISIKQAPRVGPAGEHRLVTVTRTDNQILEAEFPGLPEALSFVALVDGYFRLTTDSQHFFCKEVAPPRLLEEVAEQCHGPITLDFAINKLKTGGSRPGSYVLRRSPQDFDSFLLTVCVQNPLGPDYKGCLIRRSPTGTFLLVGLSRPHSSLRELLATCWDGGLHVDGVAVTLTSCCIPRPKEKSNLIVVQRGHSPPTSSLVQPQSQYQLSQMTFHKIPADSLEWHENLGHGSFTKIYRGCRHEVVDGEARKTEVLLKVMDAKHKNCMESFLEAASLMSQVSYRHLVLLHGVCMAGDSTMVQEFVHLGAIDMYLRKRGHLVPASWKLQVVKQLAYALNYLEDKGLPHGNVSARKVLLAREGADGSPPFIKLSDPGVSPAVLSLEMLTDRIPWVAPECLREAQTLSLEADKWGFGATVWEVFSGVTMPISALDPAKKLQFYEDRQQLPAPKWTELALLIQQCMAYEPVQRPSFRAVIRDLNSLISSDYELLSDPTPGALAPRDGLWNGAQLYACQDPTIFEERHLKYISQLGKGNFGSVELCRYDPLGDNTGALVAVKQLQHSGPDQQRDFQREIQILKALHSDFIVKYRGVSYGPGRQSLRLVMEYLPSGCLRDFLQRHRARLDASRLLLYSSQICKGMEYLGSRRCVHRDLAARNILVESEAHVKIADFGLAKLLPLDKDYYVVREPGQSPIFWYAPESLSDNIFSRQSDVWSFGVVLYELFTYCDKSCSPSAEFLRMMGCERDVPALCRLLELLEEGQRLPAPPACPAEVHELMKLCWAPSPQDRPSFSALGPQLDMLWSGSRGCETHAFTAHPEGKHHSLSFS
Procedure: (§1) The degree of inhibition of a panel of kinases is determined using the in vitro HotSpot kinase assay (purified enzymes, ^33P-ATP, an appropriate substrate and 1 uM ATP).

EGFR = EGFR (Homo sapiens, UniProt P00533); assay: Inhibition of a panel of kinases, in vitro HotSpot kinase assay: EGFR
Chain of EGFR (P00533 25-1210): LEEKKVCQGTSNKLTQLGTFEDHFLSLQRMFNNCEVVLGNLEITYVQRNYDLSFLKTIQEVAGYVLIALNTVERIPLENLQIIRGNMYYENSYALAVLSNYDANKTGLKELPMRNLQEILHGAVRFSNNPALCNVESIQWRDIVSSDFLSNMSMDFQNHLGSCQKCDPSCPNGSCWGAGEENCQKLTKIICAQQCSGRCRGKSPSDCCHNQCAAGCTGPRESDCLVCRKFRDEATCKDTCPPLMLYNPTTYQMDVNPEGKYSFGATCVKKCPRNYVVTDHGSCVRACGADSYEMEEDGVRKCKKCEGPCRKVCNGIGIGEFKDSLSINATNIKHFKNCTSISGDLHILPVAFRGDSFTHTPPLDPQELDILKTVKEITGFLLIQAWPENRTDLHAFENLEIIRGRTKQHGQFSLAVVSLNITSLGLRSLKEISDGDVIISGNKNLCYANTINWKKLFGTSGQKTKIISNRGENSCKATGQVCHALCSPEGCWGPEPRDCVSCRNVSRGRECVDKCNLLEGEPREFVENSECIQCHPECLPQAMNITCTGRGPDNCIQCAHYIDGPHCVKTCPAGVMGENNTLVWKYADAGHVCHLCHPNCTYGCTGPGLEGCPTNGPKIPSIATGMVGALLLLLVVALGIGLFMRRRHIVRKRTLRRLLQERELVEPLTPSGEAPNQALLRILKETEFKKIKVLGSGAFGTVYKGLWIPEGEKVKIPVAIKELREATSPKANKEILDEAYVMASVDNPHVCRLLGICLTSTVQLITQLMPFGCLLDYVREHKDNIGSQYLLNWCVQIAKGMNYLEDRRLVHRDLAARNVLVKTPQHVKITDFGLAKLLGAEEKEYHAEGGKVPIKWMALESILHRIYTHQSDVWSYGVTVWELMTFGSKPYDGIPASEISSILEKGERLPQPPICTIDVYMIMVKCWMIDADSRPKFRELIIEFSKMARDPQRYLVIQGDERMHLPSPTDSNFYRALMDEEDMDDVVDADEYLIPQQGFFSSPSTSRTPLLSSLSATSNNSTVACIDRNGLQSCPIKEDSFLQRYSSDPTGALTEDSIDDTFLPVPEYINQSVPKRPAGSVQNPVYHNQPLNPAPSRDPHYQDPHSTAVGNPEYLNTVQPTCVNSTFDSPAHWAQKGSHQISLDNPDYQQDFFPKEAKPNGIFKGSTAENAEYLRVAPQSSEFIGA
Procedure: as §1

Lck = Lck (Homo sapiens, UniProt P06239); assay: Lck kinase activity, TR-FRET assay; settings: read-out: LCK (IC50)
Chain of Lck (P06239 whole entry, species assumed): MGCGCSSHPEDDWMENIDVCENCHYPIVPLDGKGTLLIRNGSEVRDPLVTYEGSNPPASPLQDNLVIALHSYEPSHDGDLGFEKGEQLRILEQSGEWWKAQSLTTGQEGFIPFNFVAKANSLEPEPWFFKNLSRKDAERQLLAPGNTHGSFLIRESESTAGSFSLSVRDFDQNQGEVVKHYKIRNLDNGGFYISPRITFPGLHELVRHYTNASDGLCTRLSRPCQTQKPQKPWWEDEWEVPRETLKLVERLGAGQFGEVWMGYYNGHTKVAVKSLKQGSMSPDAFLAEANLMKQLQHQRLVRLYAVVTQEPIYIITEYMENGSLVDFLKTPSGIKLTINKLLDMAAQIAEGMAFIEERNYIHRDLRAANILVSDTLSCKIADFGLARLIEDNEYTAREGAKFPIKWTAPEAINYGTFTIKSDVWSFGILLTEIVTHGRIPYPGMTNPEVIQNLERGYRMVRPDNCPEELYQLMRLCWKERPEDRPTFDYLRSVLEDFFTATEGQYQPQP
How it was run: (§2)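 Enzyme (Btk 0.5 nM; Lck 6 nM) reacted 1 h with inhibitor, ATP at Km and biotin-peptide substrate in pH 7.4 buffer, 10% DMSO. Phosphopeptide detected by Eu-p-Tyr100 antibody plus streptavidin-APC (665/615 nm). IC50 calculated from fitted Ki(app) via ATP/Km correction plus half total enzyme.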

Btk = Btk (Homo sapiens, UniProt Q06187); assay: Btk kinase activity, TR-FRET assay; settings: read-out: Btk (IC50)
Chain of Btk (Q06187 whole entry): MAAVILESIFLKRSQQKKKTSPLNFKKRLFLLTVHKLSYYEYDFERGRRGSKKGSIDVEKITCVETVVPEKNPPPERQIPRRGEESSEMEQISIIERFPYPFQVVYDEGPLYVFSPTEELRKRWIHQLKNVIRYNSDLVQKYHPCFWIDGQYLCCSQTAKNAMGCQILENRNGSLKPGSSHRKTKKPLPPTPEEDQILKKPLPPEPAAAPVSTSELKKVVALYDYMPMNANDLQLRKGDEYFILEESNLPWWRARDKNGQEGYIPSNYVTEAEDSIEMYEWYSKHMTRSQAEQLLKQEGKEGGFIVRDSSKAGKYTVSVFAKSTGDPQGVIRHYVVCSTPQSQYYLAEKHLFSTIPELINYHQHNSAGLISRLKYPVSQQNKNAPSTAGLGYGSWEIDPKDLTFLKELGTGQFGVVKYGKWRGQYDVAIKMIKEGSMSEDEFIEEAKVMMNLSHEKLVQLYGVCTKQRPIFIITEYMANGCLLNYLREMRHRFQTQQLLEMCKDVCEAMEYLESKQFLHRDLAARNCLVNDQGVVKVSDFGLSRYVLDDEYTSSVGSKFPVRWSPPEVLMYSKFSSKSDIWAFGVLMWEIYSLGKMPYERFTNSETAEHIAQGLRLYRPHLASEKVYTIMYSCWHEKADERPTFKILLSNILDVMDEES
How it was run: as §2

IC50 (JAK3) [nM]	IC50 (EGFR) [nM]	IC50 (Lck) [nM]	IC50 (Btk) [nM]	Compound
100 to 1000	100 to 1000	100 to 1000	< 100	C=CC(=O)N1CCC[C@@H](Nc2n[nH]c3nccc(Oc4ccc(-c5nc6ccccc6s5)cc4)c23)C1 [compound 192]
> 10000	1000 to 10000	1000 to 10000	100 to 1000	CC(=O)N1CCC[C@@H](Oc2n[nH]c3nccc(Nc4cccc(C(=O)Nc5ccc(C(C)C)c(C)c5)c4)c23)C1 [compound 135, 3-[(3-{[(3R)-1-acetylpiperidin-3-yl]oxy}-1H-pyrazolo[3,4-b]pyridin-4-yl)amino]-N-[3-methyl-4-(propan-2-yl)phenyl]benzamide]
> 10000	< 100	< 100	< 100	COCCN(C)C/C=C/C(=O)N1CC[C@@H](Nc2n[nH]c3nccc(Oc4ccc(Oc5ccccc5)cc4)c23)C1 [compound 9, (2E)-4-[(2-methoxyethyl)(methyl)amino]-1-[(3R)-3-{[4-(4-phenoxyphenoxy)-1H-pyrazolo[3,4-b]pyridin-3-yl]amino}pyrrolidin-1-yl]but-2-en-1-one]
> 10000	> 10000	> 10000	100 to 1000	CN(C)CCCC(=O)N[C@@H]1CCCN(c2n[nH]c3nccc(Oc4ccc(C(=O)Nc5cc(C(F)(F)F)ccn5)cc4)c23)C1 [compound 230, 4-({3-[(3R)-3-[4-(dimethylamino)butanamido]piperidin-1-yl]-1H-pyrazolo[3,4-b]pyridin-4-yl}oxy)-N-[4-(trifluoromethyl)pyridin-2-yl]benzamide]
> 10000	> 10000	1000 to 10000	< 100	O=C(Nc1cc(C(F)(F)F)ccn1)c1ccc(Oc2ccnc3[nH]nc(N[C@@H]4CCN(C(=O)C5CC5)C4)c23)cc1 [compound 215, 4-[(3-{[(3R)-1-cyclopropanecarbonylpyrrolidin-3-yl]amino}-1H-pyrazolo[3,4-b]pyridin-4-yl)oxy]-N-[4-(trifluoromethyl)pyridin-2-yl]benzamide]
> 10000	> 10000	100 to 1000	< 100	COCCCC(=O)N1CCC[C@@H](Nc2n[nH]c3nccc(Oc4ccc(C(=O)Nc5cc(C)ccn5)cc4)c23)C1 [compound 274, (R)-4-(3-(1-(4-methoxybutanoyl)piperidin-3-ylamino)-1H-pyrazolo[3,4-b]pyridin-4-yloxy)-N-(4-methylpyridin-2-yl)benzamide]
1000 to 10000	1000 to 10000	1000 to 10000	< 100	Cc1nc(NC(=O)c2ccc(Oc3ccnc4[nH]nc(N[C@@H]5CCCN(C(=O)/C=C/CN(C)C6CC6)C5)c34)cc2)sc1C [compound 164]
< 100	< 100	100 to 1000	< 100	C=CC(=O)N1CCC[C@@H](Nc2n[nH]c3nccc(Oc4ccc(C(=O)Nc5ncc(CC)s5)cc4)c23)C1 [compound 179]
> 10000	1000 to 10000	100 to 1000	< 100	CCNC(=O)N[C@@H]1CCCN(c2n[nH]c3nccc(Oc4ccc(C(=O)Nc5cc(C(F)(F)F)ccn5)cc4)c23)C1 [compound 228, 4-({3-[(3R)-3-[(ethylcarbamoyl)amino]piperidin-1-yl]-1H-pyrazolo[3,4-b]pyridin-4-yl}oxy)-N-[4-(trifluoromethyl)pyridin-2-yl]benzamide]
> 10000	> 10000	1000 to 10000	< 100	Cc1ccnc(NC(=O)c2ccc(Oc3ccnc4[nH]nc(N[C@@H]5CCCN(C(=O)C6CCOCC6)C5)c34)cc2)c1 [compound 105, N-(4-methylpyridin-2-yl)-4-[(3-{[(3R)-1-(oxane-4-carbonyl)piperidin-3-yl]amino}-1H-pyrazolo[3,4-b]pyridin-4-yl)oxy]benzamide]
> 10000	> 10000	1000 to 10000	< 100	Cc1ccnc(NC(=O)c2ccc(Oc3ccnc4[nH]nc(N[C@@H]5CCCN(C(=O)c6ccccn6)C5)c34)cc2)c1 [compound 110, N-(4-methylpyridin-2-yl)-4-[(3-{[(3R)-1-(pyridine-2-carbonyl)piperidin-3-yl]amino}-1H-pyrazolo[3,4-b]pyridin-4-yl)oxy]benzamide]

Continued, compound first:

Compound	IC50 (JAK3) [nM]	IC50 (EGFR) [nM]	IC50 (Lck) [nM]	IC50 (Btk) [nM]
Cc1ccnc(NC(=O)c2ccc(Oc3ccnc4[nH]nc(N[C@@H]5CCCN(C(=O)CCCN(C)C)C5)c34)cc2)c1 [compound 95]	> 10000	1000 to 10000	< 100	< 100
CCC(=O)N1CCC[C@@H](Nc2n[nH]c3nccc(Oc4ccc(-c5nc6ccccc6s5)cc4)c23)C1 [compound 222, 1-[(3R)-3-({4-[4-(1,3-benzothiazol-2-yl)phenoxy]-1H-pyrazolo[3,4-b]pyridin-3-yl}amino)piperidin-1-yl]propan-1-one]	> 10000	> 10000	100 to 1000	100 to 1000
CC1(C(=O)N2CCC[C@@H](Nc3n[nH]c4nccc(Oc5ccc(C(=O)Nc6ccccn6)cc5)c34)C2)CCOCC1 [compound 112, 4-[(3-{[(3R)-1-(4-methyloxane-4-carbonyl)piperidin-3-yl]amino}-1H-pyrazolo[3,4-b]pyridin-4-yl)oxy]N-(pyridin-2-yl)benzamide]	> 10000	> 10000	1000 to 10000	< 100
C=CC(=O)N1CCC[C@@H](Nc2n[nH]c3nccc(Oc4ccc(Oc5ccccc5)c(C)c4)c23)C1 [compound 153]	100 to 1000	< 100	100 to 1000	< 100
CC#CC(=O)N1CCC[C@@H](Nc2n[nH]c3nccc(Oc4ccc(C(=O)Nc5cc(C(F)(F)F)ccn5)cc4)c23)C1 [compound 205, 4-[(3-{[(3R)-1-(but-2-ynoyl)piperidin-3-yl]amino}-1H-pyrazolo[3,4-b]pyridin-4-yl)oxy]-N-[4-(trifluoromethyl)pyridin-2-yl]benzamide]	> 10000	1000 to 10000	100 to 1000	< 100
Cc1ccnc(NC(=O)c2ccc(Oc3ccnc4[nH]nc(N[C@@H]5CCCN(C(=O)CCN(C)C)C5)c34)cc2)c1 [compound 118, 4-[(3-{[(3R)-1-[3-(dimethylamino)propanoyl]piperidin-3-yl]amino}-1H-pyrazolo[3,4-b]pyridin-4-yl)oxy]-N-(4-methylpyridin-2-yl)benzamide]	> 10000	1000 to 10000	< 100	< 100
CC1(C(=O)N2CCC[C@@H](Nc3n[nH]c4nccc(Oc5ccc(C(=O)Nc6nc7ccccc7s6)cc5)c34)C2)COC1 [compound 226, N-(1,3-benzothiazol-2-yl)-4-[(3-{[(3R)-1-(3-methyloxetane-3-carbonyl)piperidin-3-yl]amino}-1H-pyrazolo[3,4-b]pyridin-4-yl)oxy]benzamide]	1000 to 10000	> 10000	100 to 1000	< 100
COCC1(C(=O)N2CCC[C@@H](Nc3n[nH]c4nccc(Oc5ccc(C(=O)Nc6cc(C)ccn6)cc5)c34)C2)CCC1 [compound 99, 4-[(3-{[(3R)-1-[1-(methoxymethyl)cyclobutanecarbonyl]piperidin-3-yl]amino}-1H-pyrazolo[3,4-b]pyridin-4-yl)oxy]-N-(4-methylpyridin-2-yl)benzamide]	> 10000	> 10000	100 to 1000	< 100

From US9580416B2, “Inhibitors of Bruton's tyrosine kinase” (PHARMACYCLICS LLC, priority 2014, dated 2017)
